Data on one compound can be found in patent US20130045991A1, “NEUROPROTECTIVE MODULATION OF NMDA RECEPTOR SUBTYPE ACTIVITIES” (THE UNIVERSITY OF BRITISH COLUMBIA, priority 2005, published 2013).

One experiment has as its system cortical neurons. Briefly: Staurosporine (STS)-induced neuronal apoptosis. The class given is cell-based, rat. The conditions noted are these: co-application of NVP-AAM077 0.4 μM. The source says:
In alternative aspects of the invention, we have achieved specific activation of NR2A-containing receptors using two different strategies. First, we examined the effect of selective activation of extrasynaptic NR2A-containing receptor activation on neuronal appopotosis induced by staurosporine (STS), a potent apoptosis inducer (Budd et al., 2000). […] The NMDA-induced neuronal protection was indeed mediated by NR2A-containing receptors as it was prevented by co-application of NVP-AAM077 (p<0.001 compared with STS alone).
Dissociated cultures of cortical neurons were prepared from 18-day Sprague-Dawley rat embryos as described previously (Mielke et al., 2005). To obtain mixed cortical cultures enriched with neurons, uridine (10 μM) and 5-Fluor-2′-deoxyuridine (10 μM) were added to the culture medium at 3 DIV and maintained for 48 h, to inhibit non-neuronal cell proliferation, before the cultures were shifted back to the normal culture medium. Mature neurons (11-14 DIV) were used for experiments. To induce neuronal apoptosis, cortical cultures were stimulated with NMDA (50 μM) and glycine (10 μM) for 20 min, or STS (100 nM) for 1 h in Mg2+-free extracellular solution (ECS) containing (mM): 25 HEPES acid, 140 NaCl, 33 glucose, 5.4 KCl and 1.3 CaCl2, with pH 7.35 and osmolarity 320-330 mOsm. […]
To visualize injured neurons, Hoechst-33342 (10 μg/ml) was added to the culture medium 20 h after treatments and incubated for 45 min at 37 °C. Images were taken with a Leica DMIRE2 fluorescence microscope. Quantitative assessment of neuronal apoptosis was performed 20 h following treatments using a Cell Death Detection ELISAPLUS Kit (Roche Applied Science). Absorbance readings were determined using a spectrophotometric microplate reader. […] Data are expressed as the difference in apoptosis relative to control and are expressed as a percentage.

In experiment [1] the target is T1, extrasynaptic NMDA receptors (Rattus norvegicus, UniProt Q00959).
T1 construct: both NR2A- and NR2B-containing receptor subtypes are expressed in these neurons; endogenous in cells; host or cells: primary cortical neurons from E18 Sprague-Dawley rat embryos, 11-14 DIV
T1 sequence (Q00959 23-1464, other chains not shown): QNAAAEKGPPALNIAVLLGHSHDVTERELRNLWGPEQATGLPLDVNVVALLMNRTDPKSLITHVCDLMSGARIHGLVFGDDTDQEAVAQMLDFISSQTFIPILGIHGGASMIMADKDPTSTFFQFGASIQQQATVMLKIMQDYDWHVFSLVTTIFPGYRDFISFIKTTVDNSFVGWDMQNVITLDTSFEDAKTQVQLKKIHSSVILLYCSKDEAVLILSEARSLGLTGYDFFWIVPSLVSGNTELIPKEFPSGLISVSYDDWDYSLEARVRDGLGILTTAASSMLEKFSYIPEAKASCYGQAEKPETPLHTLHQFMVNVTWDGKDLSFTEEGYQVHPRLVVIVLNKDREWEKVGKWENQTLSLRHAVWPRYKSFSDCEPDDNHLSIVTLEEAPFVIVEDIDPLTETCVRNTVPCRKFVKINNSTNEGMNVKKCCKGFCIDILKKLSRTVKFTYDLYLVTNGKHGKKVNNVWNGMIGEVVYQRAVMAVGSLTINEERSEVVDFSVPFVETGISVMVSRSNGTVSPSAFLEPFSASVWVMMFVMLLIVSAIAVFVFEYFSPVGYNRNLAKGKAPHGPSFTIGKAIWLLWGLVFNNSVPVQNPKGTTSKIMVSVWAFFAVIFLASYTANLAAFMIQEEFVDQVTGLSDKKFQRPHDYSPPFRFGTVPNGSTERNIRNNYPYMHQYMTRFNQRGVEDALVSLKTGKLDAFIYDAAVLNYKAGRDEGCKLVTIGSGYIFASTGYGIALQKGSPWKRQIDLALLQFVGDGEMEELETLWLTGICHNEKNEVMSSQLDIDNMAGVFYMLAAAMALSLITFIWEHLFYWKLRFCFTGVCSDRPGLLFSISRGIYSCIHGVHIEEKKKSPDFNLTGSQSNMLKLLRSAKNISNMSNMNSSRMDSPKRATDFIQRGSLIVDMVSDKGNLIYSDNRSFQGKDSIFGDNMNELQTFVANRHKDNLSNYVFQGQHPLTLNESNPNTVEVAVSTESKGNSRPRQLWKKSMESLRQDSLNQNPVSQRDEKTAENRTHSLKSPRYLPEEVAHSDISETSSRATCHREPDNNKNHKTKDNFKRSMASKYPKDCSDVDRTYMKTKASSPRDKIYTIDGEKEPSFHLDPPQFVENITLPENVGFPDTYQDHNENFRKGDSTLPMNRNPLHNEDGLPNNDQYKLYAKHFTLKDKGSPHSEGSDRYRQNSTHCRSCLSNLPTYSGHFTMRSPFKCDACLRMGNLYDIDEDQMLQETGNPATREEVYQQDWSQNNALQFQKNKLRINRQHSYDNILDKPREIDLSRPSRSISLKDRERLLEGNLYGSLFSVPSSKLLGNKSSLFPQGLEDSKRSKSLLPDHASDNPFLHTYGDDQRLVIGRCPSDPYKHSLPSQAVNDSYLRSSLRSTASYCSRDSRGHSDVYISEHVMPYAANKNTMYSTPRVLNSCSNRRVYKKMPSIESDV
As to the kind of experiment: NMDA-induced currents mediated by extrasynaptic NMDA receptors. Type of experiment: cell-based. To be noted: in presence of Ro 25-6981; NVP-AAM077 0.4 μM. The procedure: In contrast to the predominant expression of NR2A-containing receptors at synapses, NR2B-containing receptors are thought to be the predominant NMDA receptor expressed at extrasynaptic sites in mature neurons (Massy et al., 2004; Tovar et al., 2002). […] The selective blockade of synaptic NMDA receptors was achieved by co-application of bicuculline (50 μM) and MK-801 (10 μM) for 10 min. Bicuculline enhances synaptic release of glutamate and thereby selectively activates synaptic NMDA receptors (Hardingham et al., 2002). MK-801, as an irreversible blocker of open NMDA receptor channels (Tovar et al., 2002; Huettner et al., 1988), can only block the bicuculline-activated synaptic NMDA receptors, and cannot block extrasynaptic channels that are not activated during bicuculline application. […] Little recovery was observed one hour following wash-out of the drugs. The currents gated through extrasynaptic NMDA receptors were then induced by application of NMDA (200 μM) via a fast perfusion system after washing out bicuculline and MK-801. […] On average, about 26.6±2.3% (n=5) of total currents gated by extrasynaptic NMDA receptors were mediated by NR2A-containing receptors (FIG. 4Ad).
Recording of NMDA-induced currents mediated by extrasynaptic NMDA Receptors: Extrasynaptic NMDA receptors were isolated by a specific blockade of synaptic NMDA receptors with NMDA receptor open channel blocker MK-801 as described above. The coverslip with the treated cortical neurons was transferred to a recording chamber for whole-cell patch-clamp recording. Extrasynaptic NMDA receptors in voltage-clamped cortical neurons were activated by NMDA (200 μM) in Mg2+-free ECS using a fast perfusion system (Warner Instruments).

The test system of the next experiment is Akt (phospho-Ser473). As to the kind of experiment: Western blotting of Akt phosphorylation after NMDA treatment. The class given is cell-based, rat. The conditions noted are these: NMDA-treated neurons, western blot. The protocol:
Twelve hours after treatments, proteins were extracted from neurons using a lysis buffer composed of 150 mM NaCl, 50 mM Tris (pH 7.4), 0.1% SDS, 1% NP-40, 0.5% sodium deoxycholate, 1 mM EDTA, 1 mM Na3VO4, 10 μg/ml each of leupeptin and aprotinin, and 1 mM phenylmethylsulfonyl fluoride. To determine the state of Akt phosphorylation, the samples were separated on 10% SDS-PAGE gels, transferred to PVDF membrane and immunoblotted with anti-phosphoSer473-Akt antibody (Cell Signaling). The same membrane was stripped and reprobed with anti-Akt antibody (Cell Signaling). To determine the activity of caspase-3, the samples were separated on 15% SDS-PAGE gels and transferred to PVDF membranes, which were then sequentially probed with antibodies against cleaved caspase-3 (Asp175, Cell Signaling) and β-tubulin (Sigma).
(A western blot detects proteins with antibodies after separation by electrophoresis.)

Turning to `C[C@H](NC(c1cccc2[nH]c(=O)c(=O)[nH]c12)P(=O)(O)O)c1ccc(Br)cc1` (stereo partly drawn) [NVP-AAM077], in the experiment on cortical neurons, the “effect on NMDA-induced protection against STS” value is “prevented”. Also, the “effect on residual, NR2B antagonist-resistant extrasynaptic current” value in experiment [1] is “virtually completely blocked”. In addition, the “effect on NMDA-induced reduction in Akt kinase activity (S473 dephosphorylation)” value with Akt (phospho-Ser473) is listed as “slightly increased the NMDA-induced reduction in Akt activity”.
